Target: T1, recombinant human liver GK (Homo sapiens, UniProt P35557)
T1 construct: made in house; host or cells: E. coli
T1 sequence (P35557 1-466 isoform P35557-2): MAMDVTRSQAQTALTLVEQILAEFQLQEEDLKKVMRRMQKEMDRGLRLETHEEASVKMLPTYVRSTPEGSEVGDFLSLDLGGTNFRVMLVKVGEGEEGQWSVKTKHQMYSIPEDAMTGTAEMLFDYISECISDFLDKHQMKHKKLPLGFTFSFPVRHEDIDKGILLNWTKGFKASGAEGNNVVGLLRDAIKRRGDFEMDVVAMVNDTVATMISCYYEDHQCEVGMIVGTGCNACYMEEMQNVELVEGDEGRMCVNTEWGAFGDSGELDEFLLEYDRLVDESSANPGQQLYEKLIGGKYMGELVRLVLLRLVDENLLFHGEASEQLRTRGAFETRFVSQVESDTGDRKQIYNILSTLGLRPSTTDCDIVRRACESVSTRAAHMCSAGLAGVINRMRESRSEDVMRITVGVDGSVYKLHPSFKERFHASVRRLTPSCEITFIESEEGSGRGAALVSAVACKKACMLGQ
Test: Glucokinase-activating effect (Thio-NADH production via G6PDH-coupled assay)
Format: biochemical
Settings: final glucose concentration 2.5 mM, 30° C.; for Emax: OD level of DMSO control taken as 100%
Procedure: The excellent glucokinase-activating effect of the compound represented by the Formula (I) can be determined by a method described in references (e.g., Diabetes, Vol. 45, pp. 1671-1677, 1996, etc.) or by a method based on the same.
The glucokinase activity is determined not by directly measuring glucose-6-phosphate, but by measuring the level of Thio-NADH produced when a reporter enzyme, glucose-6-phosphate dehydrogenase, produces phosphogluconolactone from glucose-6-phosphate.
A recombinant human liver GK used in this assay was expressed in E. coli as a FLAG fusion protein, and then purified by ANTIFLAG M2 AFFIMTY GEL (Sigma).
The assay was carried out using a flat-bottom 96-well plate at 30° C. First, 69 μl of assay buffer (25 mM Hepes Buffer:pH=7.2, 2 mM MgCl2, 1 mM ATP, 0.5 mM TNAD, 1 mM dithiothreitol) was dispensed, and 1 μl of DMSO solution of the compound or DMSO as a control was added thereto. Subsequently, 20 μl of enzyme mixture (FLAG-GK, 20 U/ml G6PDH) that had been cooled in ice was dispensed, and 10 μl of 25 mM glucose, a substrate, was added thereto to initiate reaction (final glucose concentration=2.5 mM).
After the start of the reaction, an increase in the absorbance at 405 nm was measured for 12 minutes at 30 second intervals, and the increment for the first 5 minutes was used for evaluation of the compound. FLAG-GK was added so that the increment of absorbance in 5 minutes in the presence of 1% DMSO was from 0.04 to 0.06.
Taking the OD level of the DMSO control as 100%, the OD level of the test compound at different concentrations was determined From the OD level at each concentration, Emax (%) and EC50 (μM) were calculated and used as an index of the GK-activating ability of the compound.

SMILES | Emax | EC50
CN(C)CCOc1ccc(Sc2ccc(Sc3nncn3C)nc2C(=O)Nc2ccn(C)n2)cc1 [Example 1, 3-({4-[2-(dimethylamino)ethoxy]phenyl}thio)-N-(1-methyl-1H-pyrazol-3-yl)-6-[(4-methyl-4H-1,2,4-triazol-3-yl)thio]pyridine-2-carboxamide] | 890% | 120 nM
CCN(CC)CCOc1ccc(Sc2ccc(Sc3nncn3C)nc2C(=O)Nc2ccn(C)n2)cc1 [Example 2] | – | 200 nM
Cn1ccc(NC(=O)c2nc(Sc3nncn3C)ccc2Sc2ccc(OCCN3CCCC3)cc2)n1 [Example 3] | – | 80 nM
CN1CC(Oc2ccc(Sc3ccc(Sc4nncn4C)nc3C(=O)Nc3ccn(C)n3)cc2)C1 [Example 4, 3-({4-[(1-methylazetidin-3-yl)oxy]phenyl}thio)-N-(1-methyl-1H-pyrazol-3-yl)-6-[(4-methyl-4H-1,2,4-triazol-3-yl)thio]pyridine-2-carboxamide] | – | 70 nM
CCN1CC(Oc2ccc(Sc3ccc(Sc4nncn4C)nc3C(=O)Nc3ccn(C)n3)cc2)C1 [Example 5] | – | 120 nM
CC(C)N1CC(Oc2ccc(Sc3ccc(Sc4nncn4C)nc3C(=O)Nc3ccn(C)n3)cc2)C1 [Example 6] | – | 150 nM
CCN1CC(COc2ccc(Sc3ccc(Sc4nncn4C)nc3C(=O)Nc3ccn(C)n3)cc2)C1 [Example 7, 3-({4-[(1-ethylazetidin-3-yl)methoxy]phenyl}thio)-N-(1-methyl-1H-pyrazol-3-yl)-6-[(4-methyl-4H-1,2,4-triazol-3-yl)thio]pyridine-2-carboxamide] | 930% | 60 nM
CC(C)N1CC(COc2ccc(Sc3ccc(Sc4nncn4C)nc3C(=O)Nc3ccn(C)n3)cc2)C1 [Example 8, 3-({4-[(1-isopropylazetidin-3-yl)methoxy]phenyl}thio)-N-(1-methyl-1H-pyrazol-3-yl)-6-[(4-methyl-4H-1,2,4-triazol-3-yl)thio]pyridine-2-carboxamide] | 960% | 80 nM
CN(C)CCOc1ccc(Sc2ccc(Sc3nncn3C)nc2C(=O)Nc2ccn(C)n2)cn1 [Example 9] | 880% | 180 nM
